Data from EP2292587A1, “PHARMACEUTICAL COMPOSITION FOR INHIBITING THE TRANSCRIPTION FACTOR INDUCIBLE BY HYPOXIA, MODULATORS OF PATHOLOGICAL PROCESSES OF ANGIOGENESIS, ONCOGENESIS, INFLAMMATION, APOPTOSIS, AND CELLULAR THERAPY” (Fundacion De La Comunidad Valenciana Centro De …, priority 2008, dated 2009).

system: HIF; experiment: luciferase cell assay based on the HIF response elements (HRE), HeLa 9XHRE-LUC; design: species or system human; details: Homo sapiens; cell assay based on the HIF response elements (Example 1), HeLa 9XHRE-LUC; read-out: IC50 HRE
From the text: In order to identify direct inhibitors of the activity of HIF, a stable recombinant line was first constructed from the cervical tumor line, known in scientific literature as HeLa, which contained the deoxyribonucleic acid (DNA) sequences of the region located between positions -985 and -951 of the human vascular endothelial growth factor (hVEGF), repeated nine times (9X) and fused to the luciferase reporter gene (LUC). This plasmid, provided by Dr. Manuel Ortiz de Landazuri from the Hospital de La Princesa of Madrid, called 9XHRE-LUC, was prepared using a commercial kit (Endofree Maxi-Prep; Qiagen, Inc., Valencia, CA). The transfections were performed with FuGene6 (Roche, cat.1814443) according to the manufacturer's instructions, the µg DNA: µg FuGene ratio was 1:3. The transfected cell lines were generated by cotransfection with the vector pCMV-Hygrom which expressed a hygromycin resistance gene in mammalian cells, allowing the selection of the transfected clones. After 48 hours, the growth medium was substituted with fresh medium containing 100 µg/ml hygromycin (Sigma), the clones resistant to the antibiotic were collected and analyzed by means of RT-PCR to select the clone with the desired construct. Routinely, the HeLa 9XHRE-LUC cell line was maintained in exponential growth by means of performing subcultures in DMEM (Invitrogen-Life Technologies, Inc., Carlsbad, CA), supplemented with 10% inactivated fetal bovine serum (Whittacker Bioproducts), penicillin (50 IU/ml), streptomycin (50 µg/ml) (Invitrogen-Life Technologies, Inc., Carlsbad, CA). The cells were cultured at 37°C with a humidified atmosphere containing 5% CO2 and 300 nM Desferoxamine (DFX; Sigma St. Louis, MO).
The compounds of the Collection of the CIPF, coming from a selection of commercial collections of Sigma-Aldrich, were solubilized in DMSO at a final concentration of 5 mM and preserved at -80°C. The concentration of these compounds in the luciferase assay was 1 mcM finally in the well of the multi-well plate in which the reaction was carried out. The luciferase assays were performed in white 96-well plates (Valtecknova ref. 3917), using the kit Bright-Glo™ Luciferase Assay System (Promega, Inc., Madison, WI) following the instructions supplied by the manufacturer.
According to the methodology of the cell assay based on the HIF response elements (Example 1), the intermediate compounds of the synthesis and several synthesized analogs were tested to obtain the SAR of FM19G11.

IC50 [nM] | SMILES
> 1000 | COC(=O)c1cccc(NC(=O)c2ccc(C(F)(F)F)cc2[N+](=O)[O-])c1 [Compound 5, methyl 3-(2-nitro-4-(trifluoromethyl)benzamido)benzoate]
> 1000 | O=C(O)c1cccc(NC(=O)c2ccc(C(F)(F)F)cc2[N+](=O)[O-])c1 [Compound 6, 3-(2-nitro-4-(trifluoromethyl)benzamido)benzoic acid]
84 | Cc1ccc(C(=O)COC(=O)c2cccc(NC(=O)c3ccc(C(F)(F)F)cc3[N+](=O)[O-])c2)cc1 [Compound 7, 2-oxo-2-(p-tolyl)ethyl 3-(2-nitro-4-(trifluoromethyl)benzamido)benzoate]
> 1000 | COC(=O)c1cccc(NC(=O)c2ccc([N+](=O)[O-])cc2C(F)(F)F)c1 [Compound 8, methyl 3-(4-nitro-2-(trifluoromethyl)benzamido)benzoate]
> 1000 | O=C(O)c1cccc(NC(=O)c2ccc([N+](=O)[O-])cc2C(F)(F)F)c1 [Compound 9, 3-(4-nitro-2-(trifluoromethyl)benzamido)benzoic acid]
140 | Cc1ccc(C(=O)COC(=O)c2cccc(NC(=O)c3ccc([N+](=O)[O-])cc3C(F)(F)F)c2)cc1 [Compound 10, 2-oxo-2-(p-tolyl)ethyl 3-(4-nitro-2-(trifluoromethyl)benzamido)benzoate]
> 1000 | O=C(O)c1cccc(NC(=O)c2ccc(C(F)(F)F)cc2C(F)(F)F)c1 [Compound 12, 3-(2,4-bis-(trifluoromethyl)benzamido)benzoic acid]
300 | Cc1ccc(C(=O)COC(=O)c2cccc(NC(=O)c3ccc(C(F)(F)F)cc3C(F)(F)F)c2)cc1 [Compound 13, 2-oxo-2-(p-tolyl)ethyl 3-(2,4-bis(trifluoromethyl)benzamido)benzoate]
> 1000 | Cc1ccc(C(=O)COC(=O)c2cccc(NC(=O)c3ccccc3)c2)cc1 [Compound 16, 2-oxo-2-(p-tolyl)ethyl 3-(benzamido)benzoate]
2500 | Cc1ccc(C(=O)COC(=O)c2cccc(NC(=O)c3ccc([N+](=O)[O-])cc3)c2)cc1 [Compound 22, 2-oxo-2-(p-tolyl)ethyl 3-(4-nitrobenzamido)benzoate]
> 1000 | COC(=O)c1cccc(NC(=O)c2ccccc2[N+](=O)[O-])c1 [Compound 23, methyl 3-(2-nitrobenzamido)benzoate]
1400 | O=C(O)c1cccc(NC(=O)c2ccccc2[N+](=O)[O-])c1 [Compound 24, 3-(2-nitrobenzamido)benzoic acid]
2800 | Cc1ccc(C(=O)COC(=O)c2cccc(NC(=O)c3ccccc3[N+](=O)[O-])c2)cc1 [Compound 25, 2-oxo-2-(p-tolyl)ethyl 3-(2-nitrobenzamido)benzoate]

SMILES | IC50 [nM]
COC(=O)c1cccc(NC(=O)c2ccc([N+](=O)[O-])cc2[N+](=O)[O-])c1 [Compound 2, methyl 3-((2,4-dinitro)benzamido)benzoate] | > 1000
O=C(O)c1cccc(NC(=O)c2ccc([N+](=O)[O-])cc2[N+](=O)[O-])c1 [Compound 3, 3-((2,4-dinitro)benzamido)benzoic acid] | > 1000
O=C(COC(=O)c1cccc(NC(=O)c2ccc([N+](=O)[O-])cc2[N+](=O)[O-])c1)c1ccccc1 [Compound 19, 2-phenyl-2-oxoethyl 3-(2,4-(dinitro)benzamido)benzoate] | > 1000
O=C(O)c1ccc(C(=O)COC(=O)c2cccc(NC(=O)c3ccc([N+](=O)[O-])cc3[N+](=O)[O-])c2)cc1 [Compound 29, 4-(2-(3-(2,4-dinitrobenzamido)benzoyloxy)-acetyl)benzoic acid] | 1400

same assay, conditions: cell assay based on the HIF response elements (Example 1), HeLa 9XHRE-LUC; read-out: IC50 HRE

IC50 [nM] | SMILES
1000 | O=C(COC(=O)c1cccc(NC(=O)c2ccc([N+](=O)[O-])cc2[N+](=O)[O-])c1)c1ccc(C(F)(F)F)cc1 [Compound 17, 2-oxo-2-(4-trifluoromethyl) ethyl 3-(2,4-(dinitro)benzamido)benzoate]
360 | O=C(COC(=O)c1cccc(NC(=O)c2ccc([N+](=O)[O-])cc2[N+](=O)[O-])c1)c1ccc(O)cc1 [Compound 26, 2-(4-hydroxyphenyl)-2-oxoethyl 3-(2,4-(dinitro)benzamido)benzoate]
